Experimental findings from ChEMBL document CHEMBL1777720, “Novel, potent, and orally bioavailable phosphinic acid inhibitors of the hepatitis C virus NS3 protease” (Bioorg Med Chem Lett, 2011) are described below.

For orientation: bioavailability means dose-corrected exposure relative to a reference, in per cent. The low end stands for poor availability, the high end for good availability. What is called clearance is a measure of how efficiently the substance is removed, as volume per time. High values mean a high capacity for elimination, low ones a low capacity for elimination. As usually defined, the EC50 is the concentration giving half of the maximal effect. For orientation: IC50 means the point on the concentration scale where inhibition reaches its midpoint. Read a low IC50 as greater potency in that assay.

Each structure is given as a SMILES string.

Data set [1] is described as follows: Oral bioavailability in dog at 3 mg/kg. The format is ADME, organism-based, Canis lupus familiaris. The conditions noted are these: in vivo.
Data set [2] can be described thus: Clearance in dog at 1 mg/kg, iv. The class given is ADME, organism-based, Canis lupus familiaris. Also on record: dose 1 mg/kg, route intravenous. The conditions noted are these: in vivo.
The next data set deals with Hepatitis C virus. Put plainly: Antiviral activity against HCV genotype 1b infected in Huh7 cells assessed as inhibition of viral replication by cell-based replicon assay. The conditions noted are these: Huh-7. The class given is functional, organism-based, Hepacivirus hominis. A general note: Replicon systems follow genome replication, usually without infectious particles.

Data set [3] is described as follows: Inhibition of HCV 1a NS3/4A protease. More on the design: species or system Hepatitis C virus subtype 1a.
Data set [4] is described as follows: Oral bioavailability in rat at 10.7 mg/kg, po. The format is ADME, organism-based. The conditions noted are these: in vivo.
Data set [5] is described as follows: Clearance in rat at 0.4 mg/kg, iv. The conditions noted are these: in vivo. Also on record: dose 0.4 mg/kg, route intravenous. The class given is ADME, organism-based.
Data set [6] can be described thus: Clearance in dog at 0.5 mg/kg, iv. The class given is ADME, organism-based, Canis lupus familiaris. More on the design: dose 0.5 mg/kg, route intravenous. The conditions noted are these: in vivo.
Data set [7] can be described thus: Oral bioavailability in dog at 4 mg/kg. The class given is ADME, organism-based, Canis lupus familiaris. The conditions noted are these: in vivo.

Molecule `C=C[C@@H]1C[C@]1(NC(=O)[C@@H]1C[C@@H](Oc2cc(-c3csc(NC(C)C)n3)nc3cc(OC)ccc23)CN1C(=O)[C@@H](NC(=O)OC1CCCC1)C(C)(C)C)P(=O)(O)O` had a bioavailability in data set [1] of 0.5%. This molecule also had a clearance in data set [2] of 0.67 L/h/kg.

As to `COc1ccc2c(O[C@@H]3C[C@H]4C(=O)N[C@]5(P(=O)(O)O)C[C@H]5/C=C/CCCCC[C@H](NC(=O)OC5CCCC5)C(=O)N4C3)cc(-c3csc(NC(C)C)n3)nc2c1`, the half-maximal effective concentration (EC50) in the data set on Hepatitis C virus was 5 nM. The same molecule showed an IC50 in data set [3] of 1 nM.

As to `C=C[C@@H]1C[C@]1(NC(=O)[C@@H]1C[C@@H](Oc2cc(-c3csc(NC(C)C)n3)nc3cc(OC)ccc23)CN1C(=O)[C@@H](NC(=O)OC1CCCC1)C(C)(C)C)P(C)(=O)O`, in the data set on Hepatitis C virus, the EC50 came to 69 nM. In data set [3], this molecule returned an IC50 of 6 nM. The bioavailability in data set [4] is 0.4%. In data set [5], the clearance is 1.72 L/h/kg.

Turning to `C=C[C@@H]1C[C@]1(NC(=O)[C@@H]1C[C@@H](Oc2cc(-c3csc(NC(C)C)n3)nc3cc(OC)ccc23)CN1C(=O)[C@@H](NC(=O)OC1CCCC1)C(C)(C)C)P(=O)(O)CC`, the EC50 in the data set on Hepatitis C virus worked out at 390 nM. Also, the IC50 in data set [3] stood at 8 nM.

Consider `C=C[C@@H]1C[C@]1(NC(=O)[C@@H]1C[C@@H](Oc2cc(-c3csc(NC(C)C)n3)nc3cc(OC)ccc23)CN1C(=O)[C@@H](NC(=O)OC1CCCC1)C(C)(C)C)P(=O)(O)CCCC`, for which, in the data set with Hepatitis C virus, the EC50 turned out to be 49 nM. Also, half-maximal inhibition in data set [3] (IC50) was put at 8 nM.

Turning to `C=C[C@@H]1C[C@]1(NC(=O)[C@@H]1C[C@@H](Oc2cc(-c3csc(NC(C)C)n3)nc3cc(OC)ccc23)CN1C(=O)[C@@H](NC(=O)OC1CCCC1)C(C)(C)C)P(=O)(O)C(C)C`, in the data set on Hepatitis C virus, the EC50 came out at 3080 nM. In data set [3], this molecule showed an IC50 of 86 nM.

`C=C[C@@H]1C[C@]1(NC(=O)[C@@H]1C[C@@H](Oc2cc(-c3csc(NC(C)C)n3)nc3cc(OC)ccc23)CN1C(=O)[C@@H](NC(=O)OC1CCCC1)C(C)(C)C)P(=O)(O)c1ccccc1`: the EC50 with Hepatitis C virus turned out to be 2650 nM. The same molecule had an IC50 in data set [3] of 44 nM.

Consider `C=C[C@@H]1C[C@]1(NC(=O)[C@@H]1C[C@@H](Oc2cc(-c3csc(NC(C)C)n3)nc3cc(OC)ccc23)CN1C(=O)[C@@H](NC(=O)OC1CCCC1)C(C)(C)C)P(=O)(O)Cc1ccccc1`, for which, in the data set with Hepatitis C virus, the EC50 is 180 nM. In data set [3], this molecule displayed an IC50 of 9 nM. Also, the clearance in data set [5] was 2.2 L/h/kg; in data set [6] it was 0.64 L/h/kg. In data set [1], the bioavailability is 4.6%.

For the molecule `C=C[C@@H]1C[C@]1(NC(=O)[C@@H]1C[C@@H](Oc2cc(-c3csc(NC(C)C)n3)nc3cc(OC)ccc23)CN1C(=O)[C@@H](NC(=O)OC1CCCC1)C(C)(C)C)P(=O)(O)Cc1ccccc1Cl`, in the data set on Hepatitis C virus, the EC50 was determined as 311 nM. The same molecule registered an IC50 in data set [3] of 6 nM.

For `C=C[C@@H]1C[C@]1(NC(=O)[C@@H]1C[C@@H](Oc2cc(-c3csc(NC(C)C)n3)nc3cc(OC)ccc23)CN1C(=O)[C@@H](NC(=O)OC1CCCC1)C(C)(C)C)P(=O)(O)Cc1ccccc1OC`, the concentration for a half-maximal effect (EC50) in the data set on Hepatitis C virus was found to be 47 nM. The IC50 in data set [3] stood at 6 nM.

On to `COc1ccc2c(O[C@@H]3C[C@H]4C(=O)N[C@]5(P(=O)(O)Cc6ccccc6)C[C@H]5/C=C/CCCCC[C@H](NC(=O)OC5CCCC5)C(=O)N4C3)cc(-c3csc(NC(C)C)n3)nc2c1`, for which the EC50 with Hepatitis C virus amounted to 10 nM. In data set [3], this molecule came in with an IC50 of 3 nM.

For the molecule `COc1ccc2c(O[C@@H]3C[C@H]4C(=O)N[C@]5(P(=O)(O)Cc6ccccc6)C[C@H]5CCCCCCC[C@H](NC(=O)OC5CCCC5)C(=O)N4C3)cc(-c3csc(NC(C)C)n3)nc2c1`, the concentration giving a half-maximal response (EC50) with Hepatitis C virus is 5 nM. Also, it took 6 nM to reach half-maximal inhibition in data set [3] (IC50). In data set [7], this molecule had a bioavailability of 6.4%. The clearance in data set [2] is 0.36 L/h/kg.

Take `COc1ccc2c(O[C@@H]3C[C@H]4C(=O)N[C@]5(P(=O)(O)Cc6ccccc6Cl)C[C@H]5/C=C/CCCCC[C@H](NC(=O)OC5CCCC5)C(=O)N4C3)cc(-c3csc(NC(C)C)n3)nc2c1`: the EC50 in the data set with Hepatitis C virus came out at 5 nM. This molecule also showed an IC50 in data set [3] of 1 nM. The clearance in data set [2] is 0.56 L/h/kg.

As for `COc1ccc2c(O[C@@H]3C[C@H]4C(=O)N[C@]5(P(=O)(O)Cc6ccccc6Cl)C[C@H]5CCCCCCC[C@H](NC(=O)OC5CCCC5)C(=O)N4C3)cc(-c3csc(NC(C)C)n3)nc2c1`, the EC50 in the data set with Hepatitis C virus turned out to be 5 nM. Further, the IC50 in data set [3] amounted to 3 nM. Moreover, in data set [2], the clearance is 0.19 L/h/kg.

Regarding `COc1ccc2c(O[C@@H]3C[C@H]4C(=O)N[C@]5(P(=O)(O)Cc6ccccc6OC)C[C@H]5/C=C/CCCCC[C@H](NC(=O)OC5CCCC5)C(=O)N4C3)cc(-c3csc(NC(C)C)n3)nc2c1`, in the data set on Hepatitis C virus, the EC50 stood at 9 nM. In addition, half-maximal inhibition in data set [3] (IC50) was put at 3 nM. The clearance in data set [2] is 1.04 L/h/kg.

On to `COc1ccc2c(O[C@@H]3C[C@H]4C(=O)N[C@]5(P(=O)(O)Cc6ccccc6OC)C[C@H]5CCCCCCC[C@H](NC(=O)OC5CCCC5)C(=O)N4C3)cc(-c3csc(NC(C)C)n3)nc2c1`, for which, in the data set with Hepatitis C virus, the 50% effective concentration (EC50) was 7 nM. For the same molecule, the IC50 in data set [3] amounted to 3 nM. This molecule gave a clearance in data set [2] of 0.32 L/h/kg.

For the molecule `COc1ccc2c(O[C@@H]3C[C@H]4C(=O)N[C@]5(C(=O)O)C[C@H]5C=CCCCCC[C@H](NC(=O)OC5CCCC5)C(=O)N4C3)cc(-c3csc(NC(C)C)n3)nc2c1` [CILUPREVIR], the EC50 in the data set with Hepatitis C virus worked out at 1 nM. The IC50 in data set [3] was determined as 1 nM.
